From ChEMBL document CHEMBL4330117, “Synthesis, biological evaluation and molecular docking of benzimidazole grafted benzsulfamide-containing pyrazole ring derivatives as novel tubulin polymerization inhibitors” (Bioorg Med Chem, 2019)
Calls of active or inactive are those of the source. The rule behind the calls is not given here.

Experiments:
Rattus norvegicus = assay: Antitumor activity against rat hepatoma H22 cells implanted in mouse assessed as reduction in tumor volume at 3 mg/kg, ip measured after 8 to 28 days; assay type: functional, organism-based
[1] = Toxicity in mouse xenografted with rat H22 cells assessed as weight loss at 3 mg/kg, ip measured after 28 days; assay type: organism-based; conditions: in vivo, 672 h
[2] = Cytotoxicity against mouse primary hepatocytes after 24 hrs by MTT assay; assay type: cell-based, Hepatocyte
HeLa = assay: Antiproliferative activity against human HeLa cells after 24 hrs by MTT assay; assay type: functional, cell-based
MCF7 = assay: Antiproliferative activity against human MCF7 cells after 24 hrs by MTT assay; assay type: functional, cell-based; conditions: MCF7, 24 h
HepG2 = assay: Antiproliferative activity against human HepG2 cells after 24 hrs by MTT assay; assay type: functional, cell-based; conditions: HepG2, 24 h
[3] = Cytotoxicity against HEK293T cells after 24 hrs by MTT assay; assay type: cell-based, HEK-293T; conditions: human
A549 [4] = assay: Antiproliferative activity against human A549 cells after 24 hrs by MTT assay; assay type: functional, cell-based; conditions: A549, 24 h
A549 [5] = assay: Induction of apoptosis in human A549 cells assessed as early apoptotic cells at 0.5 uM after 24 hrs by Annexin V-FITC/propidium iodide staining-based flow cytometric analysis (reference value: 2.81%); assay type: functional
A549 [6] = assay: Induction of microtubule disruption in human A549 cells assessed as spindle microtubule disorganization accompanied by misaligned chromosomes from metaphase plate at 0.5 uM after 24 hrs by rhodamine and DAPI staining based immunofluorescence microscopic analysis; assay type: functional, cell-based
A549 [7] = assay: Cell cycle arrest in human A549 cells assessed as upregulation of cyclin B1 expression level after 24 hrs by Western blot analysis; assay type: functional, cell-based
A549 [8] = assay: Cell cycle arrest in human A549 cells assessed as accumulation at G1 phase at 0.1 uM after 24 hrs by propidium iodide/RNase A staining-based flow cytometric analysis (reference value: 71.02%); assay type: functional
A549 [9] = assay: Cell cycle arrest in human A549 cells assessed as upregulation of p21 expression level after 24 hrs by Western blot analysis; assay type: functional, cell-based
A549 [10] = assay: Cell cycle arrest in human A549 cells assessed as accumulation at G2/M phase at 0.1 uM after 24 hrs by propidium iodide/RNase A staining-based flow cytometric analysis (reference value: 17.62%); assay type: functional
A549 [11] = assay: Induction of apoptosis in human A549 cells assessed as viable cells at 0.3 uM after 24 hrs by Annexin V-FITC/propidium iodide staining-based flow cytometric analysis (reference value: 82.8%); assay type: functional; conditions: A549, 24 h, read-out: Activity
A549 [12] = assay: Induction of apoptosis in human A549 cells assessed as upregulation of Bax level up to 0.5 uM after 24 hrs by Western blot analysis; assay type: functional, cell-based
A549 [13] = assay: Cell cycle arrest in human A549 cells assessed as downregulation of cdc25c expression level after 24 hrs by Western blot analysis; assay type: functional, cell-based
A549 [14] = assay: Cell cycle arrest in human A549 cells assessed as accumulation at S phase at 0.5 uM after 24 hrs by propidium iodide/RNase A staining-based flow cytometric analysis (reference value: 11.36%); assay type: functional
A549 [15] = assay: Cell cycle arrest in human A549 cells assessed as accumulation at G2/M phase at 0.5 uM after 24 hrs by propidium iodide/RNase A staining-based flow cytometric analysis (reference value: 17.62%); assay type: functional
A549 [16] = assay: Induction of apoptosis in human A549 cells assessed as downregulation of Bcl2 level up to 0.5 uM after 24 hrs by Western blot analysis; assay type: functional, cell-based
A549 [17] = assay: Cell cycle arrest in human A549 cells assessed as accumulation at G1 phase at 0.5 uM after 24 hrs by propidium iodide/RNase A staining-based flow cytometric analysis (reference value: 71.02%); assay type: functional
A549 [18] = assay: Cell cycle arrest in human A549 cells assessed as downregulation of Cdc2 expression level after 24 hrs by Western blot analysis; assay type: functional, cell-based
A549 [19] = assay: Induction of apoptosis in human A549 cells assessed as viable cells at 0.5 uM after 24 hrs by Annexin V-FITC/propidium iodide staining-based flow cytometric analysis (reference value: 82.8%); assay type: functional; conditions: A549, 24 h, read-out: Activity
A549 [20] = assay: Induction of apoptosis in human A549 cells assessed as early apoptotic cells at 0.3 uM after 24 hrs by Annexin V-FITC/propidium iodide staining-based flow cytometric analysis (reference value: 2.81%); assay type: functional
A549 [21] = assay: Cell cycle arrest in human A549 cells assessed as accumulation at G2/M phase after 24 hrs by propidium iodide/RNase A staining-based flow cytometric analysis; assay type: functional
A549 [22] = assay: Induction of apoptosis in human A549 cells assessed as upregulation of cleaved caspase-3 level up to 0.5 uM after 24 hrs by Western blot analysis; assay type: functional, cell-based
A549 [23] = assay: Induction of apoptosis in human A549 cells assessed as necrotic cells at 0.1 uM after 24 hrs by Annexin V-FITC/propidium iodide staining-based flow cytometric analysis (reference value: 10.8%); assay type: functional
A549 [24] = assay: Cell cycle arrest in human A549 cells assessed as accumulation at S phase at 0.1 uM after 24 hrs by propidium iodide/RNase A staining-based flow cytometric analysis (reference value: 11.36%); assay type: functional
A549 [25] = assay: Induction of apoptosis in human A549 cells assessed as necrotic cells at 0.5 uM after 24 hrs by Annexin V-FITC/propidium iodide staining-based flow cytometric analysis (reference value: 10.8%); assay type: functional
A549 [26] = assay: Cell cycle arrest in human A549 cells assessed as accumulation at G1 phase at 0.3 uM after 24 hrs by propidium iodide/RNase A staining-based flow cytometric analysis (reference value: 71.02%); assay type: functional
A549 [27] = assay: Induction of apoptosis in human A549 cells assessed as necrotic cells at 0.3 uM after 24 hrs by Annexin V-FITC/propidium iodide staining-based flow cytometric analysis (reference value: 10.8%); assay type: functional
Tubulin (Bos taurus) [28] = biological target: T1, Tubulin (Bos taurus) (UniProt Q6B856+Q862L2+Q862F3); assay: Inhibition of vinblastine binding to bovine brain tubulin at 5 uM
A549 [29] = assay: Induction of apoptosis in human A549 cells assessed as early apoptotic cells at 0.1 uM after 24 hrs by Annexin V-FITC/propidium iodide staining-based flow cytometric analysis (reference value: 2.81%); assay type: functional
Tubulin (Homo sapiens) [30] = biological target: T2, Tubulin (Homo sapiens) (UniProt P68371+Q9H4B7+P0DPH7+P68366+Q13509+Q71U36+P04350+Q3ZCM7+P07437+P68363+Q9BQE3+Q6PEY2+Q13885+Q9BVA1+Q9BUF5); assay: Induction of microtubule disruption in human A549 cells assessed as cell rounding at 0.2 uM after 24 hrs by rhodamine and DAPI staining based immunofluorescence microscopic analysis
Tubulin (Bos taurus) [31] = biological target: T1, Tubulin (Bos taurus); assay: Inhibition of [3H]colchicine binding to bovine brain tubulin at 5 uM
A549 [32] = assay: Induction of apoptosis in human A549 cells assessed as viable cells at 0.1 uM after 24 hrs by Annexin V-FITC/propidium iodide staining-based flow cytometric analysis (reference value: 82.8%); assay type: functional; conditions: A549, 24 h, read-out: Activity
A549 [33] = assay: Induction of apoptosis in human A549 cells assessed as upregulation of cleaved PARP level up to 0.5 uM after 24 hrs by Western blot analysis; assay type: functional, cell-based
A549 [34] = assay: Induction of apoptosis in human A549 cells assessed as late apoptotic cells at 0.3 uM after 24 hrs by Annexin V-FITC/propidium iodide staining-based flow cytometric analysis (reference value: 3.55%); assay type: functional
A549 [35] = assay: Induction of apoptosis in human A549 cells assessed as late apoptotic cells at 0.1 uM after 24 hrs by Annexin V-FITC/propidium iodide staining-based flow cytometric analysis (reference value: 3.55%); assay type: functional
Tubulin (Homo sapiens) [36] = biological target: T2, Tubulin (Homo sapiens); assay: Induction of microtubule disruption in human A549 cells assessed as cell contraction at 0.2 uM after 24 hrs by rhodamine and DAPI staining based immunofluorescence microscopic analysis
A549 [37] = assay: Cell cycle arrest in human A549 cells assessed as accumulation at S phase at 0.3 uM after 24 hrs by propidium iodide/RNase A staining-based flow cytometric analysis (reference value: 11.36%); assay type: functional
A549 [38] = assay: Cell cycle arrest in human A549 cells assessed as accumulation at G2/M phase at 0.3 uM after 24 hrs by propidium iodide/RNase A staining-based flow cytometric analysis (reference value: 17.62%); assay type: functional
A549 [39] = assay: Induction of apoptosis in human A549 cells assessed as late apoptotic cells at 0.5 uM after 24 hrs by Annexin V-FITC/propidium iodide staining-based flow cytometric analysis (reference value: 3.55%); assay type: functional

COc1ccc(/C=C\c2cc(OC)c(OC)c(OC)c2)cc1O [COMBRETASTATIN A4]
Activity (Rattus norvegicus): Active
Activity [1]: Toxic
CC50 at 24 h [2]: 178000 nM
IC50 (HeLa): 240 nM
IC50 (MCF7): 180 nM
IC50 (HepG2): 330 nM
CC50 at 24 h [3]: 162000 nM
IC50 (A549 [4]): 160 nM

Cc1ccc(C)c(S(=O)(=O)n2c(-c3cn(-c4ccccc4)nc3-c3ccc(C(F)(F)F)cc3)nc3ccccc32)c1
Activity (A549 [5]): 10.1%
Activity (A549 [6]): Active
Activity (A549 [7]): Dose-dependent effect
Activity (Rattus norvegicus): Active
Activity [1]: Non-Toxic
Activity (A549 [8]): 62.95%
Activity (A549 [9]): Dose-dependent effect
Activity (A549 [10]): 22.63%
viability at 0.3 µM (A549 [11]): 71%
Activity (A549 [12]): Active
Activity (A549 [13]): Dose-dependent effect
Activity (A549 [14]): 12.11%
Activity (A549 [15]): 40.26%
CC50 at 24 h [2]: 132000 nM
Activity (A549 [16]): Active
Activity (A549 [17]): 47.63%
Activity (A549 [18]): Dose-dependent effect
IC50 (HeLa): 210 nM
viability at 0.5 µM (A549 [19]): 62.9%
Activity (A549 [20]): 6.69%
Activity (A549 [21]): Dose-dependent effect
Activity (A549 [22]): Active
Activity (A549 [23]): 13.4%
Activity (A549 [24]): 14.42%
Activity (A549 [25]): 18.2%
Activity (A549 [26]): 53.31%
IC50 (MCF7): 170 nM
Activity (A549 [27]): 16.3%
inhibition (Tubulin (Bos taurus) [28]): 0.06%
Activity (A549 [29]): 3.08%
Activity (Tubulin (Homo sapiens) [30]): Active
inhibition (Tubulin (Bos taurus) [31]): 91%
viability at 0.1 µM (A549 [32]): 78.6%
IC50 (HepG2): 330 nM
Activity (A549 [33]): Active
Activity (A549 [34]): 5.95%
Activity (A549 [35]): 4.9%
CC50 at 24 h [3]: 223000 nM
Activity (Tubulin (Homo sapiens) [36]): Active
IC50 (A549 [4]): 150 nM
Activity (A549 [37]): 18.56%
Activity (A549 [38]): 28.13%
Activity (A549 [39]): 8.74%

O=[N+]([O-])c1ccc(S(=O)(=O)n2c(-c3cn(-c4ccccc4)nc3-c3ccc(F)cc3)nc3ccccc32)cc1
CC50 at 24 h [2]: > 300000 nM
IC50 (HeLa): 1170 nM
IC50 (MCF7): 1370 nM
inhibition (Tubulin (Bos taurus) [28]): -0.04 to 0.3%
inhibition (Tubulin (Bos taurus) [31]): 51%
IC50 (HepG2): 1340 nM
CC50 at 24 h [3]: 189000 nM
IC50 (A549 [4]): 1030 nM

Cc1ccc(-c2nn(-c3ccccc3)cc2-c2nc3ccccc3n2S(=O)(=O)c2cc(C)ccc2C)cc1
CC50 at 24 h [2]: 231000 nM
IC50 (HeLa): 370 nM
IC50 (MCF7): 510 nM
inhibition (Tubulin (Bos taurus) [28]): 0.07%
inhibition (Tubulin (Bos taurus) [31]): 82%
IC50 (HepG2): 460 nM
CC50 at 24 h [3]: 82200 nM
IC50 (A549 [4]): 270 nM
